In US20230265116A1, “DEGRADATION OF (EGFR) BY CONJUGATION OF EGFR INHIBITORS WITH E3 LIGASE LIGAND AND METHODS OF USE” (BEIGENE, LTD., priority 2020, published 2023):

Legend:
[1] = molecular target: T1, EGFR L858R/T790M/C797S (BaF3-LTC cells) (Homo sapiens, UniProt P00533, C797S/L858R/T790M); experiment: EGFR degradation HTRF assay, BaF3-LTC cells; format: cell-based; details: BaF3-LTC cells; for DC50: EGFR degradation, IC50 (DC50) from curve fit, read-out: DC50(nM) BaF3-LTC; for Dmax: maximum percentage of inhibition (degradation), read-out: Dmax (%) BaF3-LTC
T1 construct: expressed in transfected cells; host or cells: BaF3
T1 sequence (P00533 25-1210 T790M/C797S/L858R): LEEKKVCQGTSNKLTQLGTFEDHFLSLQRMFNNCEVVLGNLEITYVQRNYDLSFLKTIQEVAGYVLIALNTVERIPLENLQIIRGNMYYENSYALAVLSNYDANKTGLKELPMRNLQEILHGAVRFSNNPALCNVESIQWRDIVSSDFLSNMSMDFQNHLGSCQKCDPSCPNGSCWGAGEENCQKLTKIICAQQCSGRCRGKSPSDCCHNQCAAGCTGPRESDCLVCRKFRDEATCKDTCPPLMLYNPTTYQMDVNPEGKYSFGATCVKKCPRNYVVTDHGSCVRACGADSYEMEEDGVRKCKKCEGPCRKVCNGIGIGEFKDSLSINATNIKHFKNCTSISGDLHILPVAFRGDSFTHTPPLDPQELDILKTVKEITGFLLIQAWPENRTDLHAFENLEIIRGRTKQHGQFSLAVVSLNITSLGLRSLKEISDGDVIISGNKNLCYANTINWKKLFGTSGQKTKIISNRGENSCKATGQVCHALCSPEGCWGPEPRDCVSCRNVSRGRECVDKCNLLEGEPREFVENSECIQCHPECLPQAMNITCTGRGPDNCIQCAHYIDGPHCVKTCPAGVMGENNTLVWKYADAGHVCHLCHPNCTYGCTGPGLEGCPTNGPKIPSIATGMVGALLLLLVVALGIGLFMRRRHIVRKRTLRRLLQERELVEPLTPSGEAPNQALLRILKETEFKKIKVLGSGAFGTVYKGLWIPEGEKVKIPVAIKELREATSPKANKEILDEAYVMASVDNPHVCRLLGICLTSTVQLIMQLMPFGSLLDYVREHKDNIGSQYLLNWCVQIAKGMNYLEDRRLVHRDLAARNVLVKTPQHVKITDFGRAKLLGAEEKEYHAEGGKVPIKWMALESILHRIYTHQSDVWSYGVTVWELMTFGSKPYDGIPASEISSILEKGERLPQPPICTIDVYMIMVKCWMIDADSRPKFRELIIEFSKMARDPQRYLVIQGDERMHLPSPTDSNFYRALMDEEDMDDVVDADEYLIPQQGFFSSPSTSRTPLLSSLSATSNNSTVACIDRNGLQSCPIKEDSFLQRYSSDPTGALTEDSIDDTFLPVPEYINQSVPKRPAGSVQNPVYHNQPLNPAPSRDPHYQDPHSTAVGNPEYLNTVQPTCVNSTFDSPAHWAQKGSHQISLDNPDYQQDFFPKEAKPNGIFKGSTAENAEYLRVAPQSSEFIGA
Outline: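 EGFR remaining after a 16 h, 37 °C exposure (8 doses, 5-fold steps from 10 uM final, 0.2% DMSO) was quantified by HTRF antibodies in cell lysate. Percent inhibition relative to DMSO control was fitted by four-parameter logistic to give DC50; Dmax denotes maximal degradation.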

[2] = test system: EGFR Del19/T790M/C797S (H1975-clone #28); experiment: EGFR degradation HTRF assay, H1975-clone #28 DTC cells; format: cell-based; details: H1975 # 28 DTC cells; for DC50: EGFR degradation, IC50 (DC50) from curve fit, read-out: DC50(nM) H1975 # 28 DTC; for Dmax (%) H1975 # 28 DTC: maximum percentage of inhibition (degradation)
Outline: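 Compounds (top 10 uM, 5-fold, 8 points, 0.2% DMSO) incubated 16 h at 37 °C on homozygous clones: #23 Del19/C797S, #28 Del19/T790M/C797S, exogenous EGFR only in H1975. HTRF on lysates quantified remaining EGFR relative to DMSO; four-parameter fit gave DC50 and Dmax.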

DC50 [1] [nM]	Dmax [1] [%]	DC50 [2] [nM]	SMILES	Dmax (%) H1975 # 28 DTC [2] [%]
9.13	94.5	1.23	CCOc1cc(N2CCC(N3CCN(CCc4cc5oc(=O)n(C6CCC(=O)NC6=O)c5cc4Cl)CC3)CC2)c(CC)cc1Nc1ncc(Br)c(Nc2ccc3nc(CC)ccc3c2P(C)(C)=O)n1 (stereo not shown) [Example 627, 3-(6-(2-(4-(1-(4-((5-bromo-4-((5-(dimethylphosphoryl)-2-ethylquinolin-6-yl)amino)pyrimidin-2-yl)amino)-5-ethoxy-2-ethylphenyl)piperidin-4-yl)piperazin-1-yl)ethyl)-5-chloro-2-oxobenzo[d]oxazol-3(2H)-yl)piperidine-2,6-dione]	76.26
55.1	85.6	2.86	CCOc1cc(N2CCC(N3CCN(CCc4c(C(F)(F)F)ccc5c4oc(=O)n5C4CCC(=O)NC4=O)CC3)CC2)c(CC)cc1Nc1ncc(Br)c(Nc2ccc3nc(CC)ccc3c2P(C)(C)=O)n1 (stereo not shown) [Example 724, 3-(7-(2-(4-(1-(4-((5-bromo-4-((5-(dimethylphosphoryl)-2-ethylquinolin-6-yl)amino)pyrimidin-2-yl)amino)-5-ethoxy-2-ethylphenyl)piperidin-4-yl)piperazin-1-yl)ethyl)-2-oxo-6-(trifluoromethyl)benzo[d]oxazol-3(2H)-yl)piperidine-2,6-dione]	75.94
9.33	86.8	1.04	CCc1ccc2c(P(C)(C)=O)c(Nc3nc(Nc4cc(C5CC5)c(N5CCC(N6CCN(CCc7cccc8c7oc(=O)n8C7CCC(=O)NC7=O)CC6)CC5)cc4OC)ncc3Br)ccc2n1 (stereo not shown) [Example 631, 3-(7-(2-(4-(1-(4-((5-bromo-4-((5-(dimethylphosphoryl)-2-ethylquinolin-6-yl)amino)pyrimidin-2-yl)amino)-2-cyclopropyl-5-methoxyphenyl)piperidin-4-yl)piperazin-1-yl)ethyl)-2-oxobenzo[d]oxazol-3(2H)-yl)piperidine-2,6-dione]	82.5
3.25	92.5	0.655	CCc1ccc2c(P(C)(C)=O)c(Nc3nc(Nc4cc(CC)c(N5CCC(N6CCN(CCc7cc8oc(=O)n(C9CCC(=O)NC9=O)c8cc7F)CC6)CC5)cc4OC)ncc3Br)ccc2n1 (stereo not shown) [Example 457, 3-(6-(2-(4-(1-(4-((5-bromo-4-((5-(dimethylphosphoryl)-2-ethylquinolin-6-yl)amino)pyrimidin-2-yl)amino)-2-ethyl-5-methoxyphenyl)piperidin-4-yl)piperazin-1-yl)ethyl)-5-fluoro-2-oxobenzo[d]oxazol-3(2H)-yl)piperidine-2,6-dione]	74.18
21.9	95.4	1.05	CCOc1cc(N2CCC(N3CCN(CCc4ccc5c(oc(=O)n5C5CCC(=O)NC5=O)c4Cl)CC3)CC2)c(CC)cc1Nc1ncc(Br)c(Nc2ccc3nc(CC)ccc3c2P(C)(C)=O)n1 (stereo not shown) [Example 624, 3-(6-(2-(4-(1-(4-((5-bromo-4-((5-(dimethylphosphoryl)-2-ethylquinolin-6-yl)amino)pyrimidin-2-yl)amino)-5-ethoxy-2-ethylphenyl)piperidin-4-yl)piperazin-1-yl)ethyl)-7-chloro-2-oxobenzo[d]oxazol-3(2H)-yl)piperidine-2,6-dione]	73.81

Second part, the compound before the results:

SMILES	DC50 [1] [nM]	Dmax [1] [%]	DC50 [2] [nM]	Dmax (%) H1975 # 28 DTC [2] [%]
CCc1ccc2c(P(C)(C)=O)c(Nc3nc(Nc4cc(CC)c(N5CCC(N6CCN(C(=O)[C@@H]7CCN(c8cc(F)c([C@H]9CCC(=O)NC9=O)c(F)c8)C7)CC6)CC5)cc4OC4CC4)ncc3Br)ccc2n1 [Example 655, (R)-3-(4-((R)-3-(4-(1-(4-((5-bromo-4-((5-(dimethylphosphoryl)-2-ethylquinolin-6-yl)amino)pyrimidin-2-yl)amino)-5-cyclopropoxy-2-ethylphenyl)piperidin-4-yl)piperazine-1-carbonyl)pyrrolidin-1-yl)-2,6-difluorophenyl)piperidine-2,6-dione]	16.4	90.2	4.21	81.86
CCOc1cc(N2CCC(N3CCN(CC4CCN(c5cccc6c5oc(=O)n6C5CCC(=O)NC5=O)CC4)CC3)CC2)c(CC)cc1Nc1ncc(Br)c(Nc2ccc3c(=O)n(CC)ncc3c2P(C)(C)=O)n1 (stereo not shown) [Example 582, 3-(7-(4-((4-(1-(4-((5-bromo-4-((5-(dimethylphosphoryl)-2-ethyl-1-oxo-1,2-dihydrophthalazin-6-yl)amino)pyrimidin-2-yl)amino)-5-ethoxy-2-ethylphenyl)piperidin-4-yl)piperazin-1-yl)methyl)piperidin-1-yl)-2-oxobenzo[d]oxazol-3(2H)-yl)piperidine-2,6-dione]	8.54	93.1	1.06	79.64
CCOc1cc(N2CCC(N3CCN(CCOCCc4cccc5c4oc(=O)n5C4CCC(=O)NC4=O)CC3)CC2)c(CC)cc1Nc1ncc(Br)c(Nc2ccc3nc(CC)ccc3c2P(C)(C)=O)n1 (stereo not shown) [Example 619, 3-(7-(2-(2-(4-(1-(4-((5-bromo-4-((5-(dimethylphosphoryl)-2-ethylquinolin-6-yl)amino)pyrimidin-2-yl)amino)-5-ethoxy-2-ethylphenyl)piperidin-4-yl)piperazin-1-yl)ethoxy)ethyl)-2-oxobenzod[d]oxazol-3(2H)-yl)piperidine-2,6-dione]	11.2	92.1	0.91	62.88
COc1cc(N2CCC(N3CCN(C(=O)[C@@H]4CCN(c5cc(F)c([C@H]6CCC(=O)NC6=O)c(F)c5)C4)CC3)CC2)c(C)cc1Nc1ncc(Br)c(Nc2ccc3c(=O)n(C)ncc3c2P(C)(C)=O)n1 [Example 527, (R)-3-(4-((R)-3-(4-(1-(4-((5-bromo-4-((5-(dimethylphosphoryl)-2-methyl-1-oxo-1,2-dihydrophthalazin-6-yl)amino)pyrimidin-2-yl)amino)-5-methoxy-2-methylphenyl)piperidin-4-yl)piperazine-1-carbonyl)pyrrolidin-1-yl)-2,6-difluorophenyl)piperidine-2,6-dione]	1.77	93.4	0.583	85.27
CCOc1cc(N2CCC(N3CCN(CCCc4cc(F)cc5c4oc(=O)n5C4CCC(=O)NC4=O)CC3)CC2)c(CC)cc1Nc1ncc(Br)c(Nc2cc(F)c3nc(CC)ccc3c2P(C)(C)=O)n1 (stereo not shown) [Example 620, 3-(7-(3-(4-(1-(4-((5-bromo-4-((5-(dimethylphosphoryl)-2-ethyl-8-fluoroquinolin-6-yl)amino)pyrimidin-2-yl)amino)-5-ethoxy-2-ethylphenyl)piperidin-4-yl)piperazin-1-yl)propyl)-5-fluoro-2-oxobenzo[d]oxazol-3(2H)-yl)piperidine-2,6-dione]	8.28	93.8	2.04	78.78
CCc1ccc2c(P(C)(C)=O)c(Nc3nc(Nc4cc(CC)c(N5CCC(N6CCN(CCc7ccc([C@H]8CCC(=O)NC8=O)cc7)CC6)CC5)cc4OC)ncc3Br)ccc2n1 [Example 654, (R)-3-(4-(2-(4-(1-(4-((5-bromo-4-((5-(dimethylphosphoryl)-2-ethylquinolin-6-yl)amino)pyrimidin-2-yl)amino)-2-ethyl-5-methoxyphenyl)piperidin-4-yl)piperazin-1-yl)ethyl)phenyl)piperidine-2,6-dione]	23.2	74.8	2.08	66.53
CCc1cc(Nc2ncc(Br)c(Nc3ccc4c(c3P(C)(C)=O)OCCO4)n2)c(OC)cc1N1CCC(N2CCN(C(=O)[C@@H]3CCN(c4cc(F)c([C@H]5CCC(=O)NC5=O)c(F)c4)C3)CC2)CC1 [Example 686, (R)-3-(4-((R)-3-(4-(1-(4-((5-bromo-4-((5-(dimethylphosphoryl)-2,3-dihydrobenzo[b][1,4]dioxin-6-yl)amino)pyrimidin-2-yl)amino)-2-ethyl-5-methoxyphenyl)piperidin-4-yl)piperazine-1-carbonyl)pyrrolidin-1-yl)-2,6-difluorophenyl)piperidine-2,6-dione]	4.89	96.6	1.76	88.73
CCc1cc(Nc2ncc(Br)c(Nc3ccc4nc(NC5CC5)ccc4c3P(C)(C)=O)n2)c(OC)cc1N1CCC(N2CCN(C(=O)[C@@H]3CCN(c4cc(F)c([C@H]5CCC(=O)NC5=O)c(F)c4)C3)CC2)CC1 [Example 652, (R)-3-(4-((R)-3-(4-(1-(4-((5-bromo-4-((2-(cyclopropylamino)-5-(dimethylphosphoryl)quinolin-6-yl)amino)pyrimidin-2-yl)amino)-2-ethyl-5-methoxyphenyl)piperidin-4-yl)piperazine-1-carbonyl)pyrrolidin-1-yl)-2,6-difluorophenyl)piperidine-2,6-dione]	5.23	81.1	1.35	86.65
